According to patent US10973896B2, “Treatment or prevention of melanoma using photochemical internalization of a melanoma antigen” (PCI Biotech AS, priority 2014, dated 2021):

Legend:
J774 cells = test: Live cell fluorescence microscopy of J774 cells; format: cell-based, mouse; conditions: for cellular uptake and distribution of Alexa488-labelled OVA: with or without parallel PCI treatment, FIG. 9A
Description: Fifty thousand J774.1 cells (ATCC no. TIB-67 mouse monocyte macrophage cell line) were seeded out on no. 1.5 glass coverslips (Glasswarenfabrik Karl Hecht KG, Sondheim, Germany) in 4-well plates overnight. The cells were incubated with 0.05 or 1,0 μg/ml TPCS2a for 18 hours and washed three times in drug-free culture medium prior to incubation with 25 μg/ml OVA-Alexa488 for four hours. Cells were subsequently washed in ice-cold PBS with Ca^2+ and Mg^2+ prior to microscopy. Images of cellular localization and PCI-induced cytosolic release of OVA was obtained by epi-fluorescence microscopy using a Plan-Apochromat 63×/1.40 Oil differential interference contrast (DIC) objective or 40×/0.95 Plan-Apochromat phase contrast (Korr Ph3 M27) objective with a Zeiss Axioimager Z.1 microscope (Carl Zeiss, Oberkochen, Germany). Fluorescence of Alexa488-labelled OVA was obtained by using a 470/40 nm band pass (BP) excitation filter with a beam splitter at 495 nm and a 525/50 nm BP emission filter. TPCS2a fluorescence was obtained by using a 395-440 nm BP excitation filter with a beam splitter at 460 nm, and a 620 nm long pass filter. Micrographs were recorded with a digital AxioCam MRm camera and processed and analysed by use of the Axiovision Software (Carl Zeiss).

[1] = tested on: SIINFEKL-specific CD8 T cells; test: PCI immunisation of OT-I-spiked mice, SIINFEKL pentamer flow cytometry (Example 2); format: in vivo, C57BL/6 mice; conditions: TPCS2a at 10, 25, 50, 100 and 250 μg; data not shown
Description: One day prior to the immunisation, spleens and lymph nodes were isolated from female OT-1 mice, and erythrocytes were removed by lysis (RBC Lysing Buffer Hybri-Max from Sigma-Aldrich) from the homogenised cell suspensions. The remaining cells were washed in PBS, filtered through 70 micron nylon strainers, and 2×10^6 OT-1 cells were administered by intravenous injection into recipient female C57BLJ6 mice; the adoptive transfer of SIINFEKL-specific CD8 T cells facilitates monitoring of the immune response by flow cytometry. One day or 8 hours later, mice were bled by tail bleeding, and the blood was collected in heparin-containing tubes for analysis of the baseline frequency of OVA-specific CD8 T cells.
(§1) Then, the mice were shaved on the abdominal area, and the vaccines, consisting of OVA or of a mixture of OVA and TPCS2a, were injected intradermally using syringes with 29G needles. The vaccines were kept light protected and used within 60 minutes of preparation. The vaccines were given in two injections of 50 μl each, on the left and right side of the abdominal mid line. OVA was tested at 10 to 100 μg per dose. The TPCS2a dose was 7.5 to 250 μg.
(§2) On day 0, prior to vaccination and on various days thereafter (e.g. day 6, 7, 8, 9, 14, 23, as indicated) mice were bled by tail bleeding and erythrocytes were removed by lysis, before analysis of antigen-specific CD8 T cells by flow cytometry. At the end of the experiment (typically 11, 12, 14 or 23 days), the mice were euthanized and the splenocytes analysed ex vivo. At various time points after the TPCS2a injection (0-48 hours), the mice were anaesthetised by intraperitoneal injection of a mixture of ketamine (25 mg/kg body weight) and xylazin (4 mg/kg) and placed on a light source (for illumination and activation of the photosensitiser TPCS2a). The light dose was 6 minutes, if not otherwise stated. The whole procedure is illustrated in the scheme of FIG. 6A. The illumination of mice using LumiSource™ is imaged in FIG. 6B.
The frequency of OVA-specific CD8 T-cells in blood was monitored by staining the cells with anti-CD8 antibody and H-2K^b/SIINFEKL ProS pentamer (Proimmune, Oxford, UK) for analysis by flow cytometry. The activation status of the cells was further analysed by testing the expression of CD44 and CD69 by flow cytometry. Intracellular staining for IFN-γ was done after overnight stimulation of splenocytes in 24-well plates with the CD8 epitope OVA257-264 (SIINFEKL) at 37 ° C. Brefeldin A was added during the last 4 hours. The cells were then washed and fixed with 4% formaldehyde in PBS for 10 min on ice. Anti-CD16/32 was added to block unspecific binding to Fc receptors. The cells were then permeabilised with 0.1% NP40 in PBS for 3 min and washed before staining with anti-IFN-γ, anti-CD8 and ant-CD44 antibodies (eBioscience or BD Pharmingen). The cells were acquired using FACSCanto (BD Biosciences, San Jose, USA) and analysed using FlowJo 8.5.2 software (Tree Star, Inc., Ashland, Oreg.).

bone marrow DCs = test: Fluorescence microscopy of cytosolic antigen release in dendritic cells; format: cell-based, C57BL/6 mice; conditions: incubated with TPCS2a and Alexa488-labelled OVA
Description: Cells (J774.1 (ATCC no. TIB-67 mouse monocyte macrophage cell line) or bone marrow DCs from C57BL/6 mice) were incubated with 0.05 or 1.0 μg/ml TPCS2a and 25 μg/ml OVA-Alexa488 for 18 hours and washed three times in drug-free culture medium prior to incubation for four hours before light activation (3 min LumiSource exposure). The cells were subsequently washed in ice-cold PBS with Ca^2+ and Mg^2+ prior to microscopy. Images of cellular localization and PCI-induced cytosolic release of OVA were obtained by epi-fluorescence microscopy using a Plan-Apochromat 63×/1.40 Oil differential interference contrast (DIC) objective or 40×/0.95 Plan-Apochromat phase contrast (Korr Ph3 M27) objective with a Zeiss Axioimager Z.1 microscope (Carl Zeiss, Oberkochen, Germany). Fluorescence of Alexa488-labelled OVA was obtained by using a 470/40 nm band pass (BP) excitation filter with a beam splitter at 495 nm and a 525/50 nm BP emission filter. TPCS2a fluorescence was obtained by using a 395-440 nm BP excitation filter with a beam splitter at 460 nm, and a 620 nm long pass filter. Micrographs were recorded with a digital AxioCam MRm camera and processed and analysed by use of the Axiovision Software (Carl Zeiss).

[2] = Local reaction at the illuminated injection site (Example 2); format: in vivo, C57BL/6 mice; conditions: higher TPCS2a doses; days 1-3 after illumination; data not shown
Description: as §1, §2

Row | Substance | cellular uptake and distribution of Alexa488-labelled OVA (J774 cells) | relative localisation of antigen and TPCS2a after light activation (J774 cells; FIG. 9B) | OVA-specific immune response with increasing TPCS2a dose [1] | localisation of antigen and photosensitiser (bone marrow DCs; before light, FIG. 5A) | antigen distribution after light activation (bone marrow DCs; FIG. 5B) | local inflammation after illumination [2]
1 | Alexa488-labelled OVA: Alexa488-labelled OVA protein for fluorescence microscopy | located close to the cell surface in concise spherical shaped bodies | – | – | – | – | –
2 | tetraphenyl chlorin disulfonate [TPCS2a] | diffuse green fluorescence | co-localised | increased the measured OVA-specific immune response | co-localisation of antigen and photosensitiser in DC endosomes | release of the antigen into the cytosol could be observed over 15 minutes | more local inflammation with transient erythema
